Source: patent US7947833B2, “Preparation of quinoxaline compounds” (Janssen Pharmaceutica NV, priority 2004, dated 2011)

Biological target: CCK2 receptor (Cavia porcellus, UniProt H0VZC5)
Assay: Guinea-pig gastric corpeal muscle assay (pentagastrin-induced contraction)
Conditions: isolated guinea-pig gastric corpeal muscle strips, pentagastrin concentration-response curves, CCK1 receptors blocked
Protocol: Guinea-Pig Gastric Corpeal Muscle Assay
CCK2 receptor-mediated muscle contraction was measured in an isolated muscle-strip assay of guinea-pig gastric corpeal muscle according to the methods described by Roberts et al. (S. P. Roberts, E. A. Harper, G. F. Watt, V. P. Gerskowitch, R. A. Hull, N. P. Shankley, and J. W. Black, Br. J. Pharmacol., 1996, 118(7):1779-1789). In brief, strips of muscle were dissected and suspended in isolated tissue organ baths for isotonic muscle contraction recording. The baths, containing Krebs-Henseleit solution, were maintained at […]. and gassed continuously with 95% O2 and 5% CO2. CCK1 receptors known to be present in this assay were blocked using a selective concentration of a suitable CCK1 receptor antagonist (e.g. 2-NAP). The effectiveness of the test compounds was assessed by measuring their effect on contractile concentration-response curves obtained using a well-characterized surrogate for the hormone gastrin (pentagastrin). […]

CCK2 receptor, sequence (H0VZC5 entry or part of it): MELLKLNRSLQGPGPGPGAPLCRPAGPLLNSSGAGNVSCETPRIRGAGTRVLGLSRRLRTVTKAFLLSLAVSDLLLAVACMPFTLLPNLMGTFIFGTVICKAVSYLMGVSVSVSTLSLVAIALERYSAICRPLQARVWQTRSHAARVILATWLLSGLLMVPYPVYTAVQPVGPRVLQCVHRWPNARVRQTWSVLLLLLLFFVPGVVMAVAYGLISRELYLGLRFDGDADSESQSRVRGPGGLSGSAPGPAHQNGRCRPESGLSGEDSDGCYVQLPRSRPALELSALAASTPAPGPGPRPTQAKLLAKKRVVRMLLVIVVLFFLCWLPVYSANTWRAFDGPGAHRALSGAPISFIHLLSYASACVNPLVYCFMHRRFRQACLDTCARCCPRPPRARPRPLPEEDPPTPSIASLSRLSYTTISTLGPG

Compound: C[C@@H](NC(=O)c1ccc(Br)cc1NS(=O)(=O)c1cccc2nccnc12)c1ccc(F)cc1F [Example 2, (R)-4-Bromo-N-[1-(2,4-difluoro-phenyl)-ethyl]-2-(quinoxaline-5-sulfonylamino)-benzamide]
- behaviour in the assay (mode of antagonism): competitive antagonist
